How the values were obtained:
[1] = system: immature dendritic cells (iDCs) and autologous T-cells; assay: CMV assay: iDCs pulsed with pp65 +/- peptide, then co-incubated with T-cells; assay type: cell-based, human; conditions: for antigen-specific response, production of IFNγ: pp65+CD200AR-L peptide compared with pp65 alone
Method: Dendritic cell differentiation. Cytomegalovirus (CMV)-positive HLA-A2^+ lymphocyte packs were obtained from the American Red Cross, and CD14^+ cells were purified. Approximately 1×10^8 CD14^+ cells were cultured in polystyrene tissue-culture flasks at 37° C. in 5% CO2. GM-CSF (25 ng/mL) and IL-4 (40 ng/mL) were both added on days 3 and 5 to derive immature dendritic cells (iDCs).
CMV assay. iDCs (5×10^5) were pulsed with 10 μg of CMV antigen peptide pp65495-503 (NLVPMVATV) and cultured as described above. The iDCs were then washed three times, and 5×10^5 CD8^+ T-cells from CMV-positive donors were co-incubated with the pulsed iDCs. CMV-negative PBMCs were used as a negative control. Supernatants were collected after 48 h of incubation and analyzed for IFNγ production by cytometric bead array (BD Biosciences).
To assess the effects of P1A8, P2A0, and P4A10 on the antigen-specific response, we measured IFNγ release in the following assay. iDCs were pulsed with the CMV antigen pp65 with and without an equimolar amount of P1A8, P2A0, or P4A10. Autologous T-cells were then added and incubated with the iDCs for 48 h, after which IFNγ production was measured in the supernatants. Exposure to pp65 increased T-cell IFNγ production approximately 4-fold (FIG. 4c). Co-treatment of iDCs with pp65 and P1A8, P2A0, or P4A10 increased IFNγ release by an additional 2- to 3-fold over pp65 alone.

Human CD14+ cells = assay: Cytokine measurements in CD14+ cells pulsed with CD200AR-L peptide; assay type: cell-based; conditions: for IL-1β in supernatant / TNFα in supernatant: CD14+ cells pulsed with peptide, 48 h, compared with non-pulsed controls; for secretion of inflammatory cytokines from CD14+ cells: selection among 61 alanine-substituted peptides
Method: Cytokine measurements. Human CD14^+ cells (5×10^5) were isolated from peripheral blood mononuclear cells (PBMCs) using anti-CD14 beads (BD Biosciences, San Jose, CA), typically yielding ≥70% recovery and ≥90% purity. Cells were pulsed with 2 μM CD200AR-L peptide and incubated for 48 h, after which the supernatants were analyzed by bead array for cytokine production (BD Biosciences, San Jose, CA).

CD14+ cells [2] = assay: Dendritic cell maturation: phenotyping for CD80, CD86, HLA-DR; assay type: cell-based, human; conditions: peptide alone compared with GM-CSF+IL4, p<0.0001
Method: FIGS. 4A-4D. Targeting CD200 activation receptors enhances dendritic cell maturation. (FIGS. 4A, 4B) CD14 purified cells were pulsed with (FIG. 4A) GM-CSF+IL4 or equal molar ratios of peptides P1A8, P2A0, or P4A10 or (FIG. 4B) GM-CSF+IL4 plus equal molar ratios of peptides P1A8, P2A0, or P4A10 and incubated for 48 h. Cells were harvested and phenotyped for CD80, CD86, and HLA-DR. (FIG. 4C) Immature dendritic cells from donors with or without CMV were pulsed with the CMV antigen pp65+/−equal molar ratios of peptides P1A8, P2A0, or P4A10. Cells were washed, and autologous T-cells were added back and incubated for a further 48 h. Supernatants were analyzed for IFNγ production. (FIG. 4D) Immature dendritic cells were pulsed with the CMV antigen pp65+/−P4A10. After the cells were washed, autologous T-cells were added back and incubated for a further 48 h. Supernatants were analyzed for IFNγ, IL-6, TNFα and RANTES content. Error bars represent standard deviation (n=3 healthy donors/group, *P<0.05, **P<0.005, ***P<0.0005 by t-test). The data represent three separate healthy donors. Black bars represent CMV-negative donors.
Targeting CD200 activation receptors enhances dendritic cell maturation. TNF-regulated cytokines (Table 1) have been implicated in dendritic cell maturation. […] To substantiate this, CD14^+ cells were isolated from healthy human donors and pulsed with GM-CSF+IL4, P1A8, P2A0, or P4A10 27. Cells pulsed with P1A8, P2A0, and P4A10 expressed higher levels of the co-stimulatory molecules CD80, CD86, and HLA-DR than cells treated with GM-CSF+IL4 (p<0.0001; FIG. 4a). Moreover, we observed synergistic upregulation of CD80/86 and HLA-DR when CD14^+ cells were incubated with GM-CSF+IL4 and each of the peptides (p<0.0001) (FIG. 4b).

CD14+ cells [3] = assay: RNAseq / NanoString gene expression analysis of pulsed CD14+ cells; assay type: cell-based, human; conditions: for mRNA expression of TNF-regulated cytokines: NanoString platform, FIG. 3b; for mRNA expression of cytokines released in response to TNF signaling: RNAseq, CD14+ cells
Description: Nanostring gene expression analysis: Total RNA from CD14^+ cells was sent to New Zealand Genomics Limited (Dunedin, New Zealand) to measure the expression of genes that are differentially expressed during inflammation (nCounter GX, NanoString Technologies, Seattle, WA, USA). Briefly, total RNA was extracted from CD14^+ cells (MagJET RNA kit, Thermo Fisher Scientific, Waltham, MA) using the protocol adapted for tissue (KingFisher Duo machine, Thermo Fisher Scientific, Waltham, MA). RNA samples were then quantified (Qubit® 2.0 fluorometer, Thermo Fisher Scientific) and subjected to RNA integrity analysis (2100 Bioanalyzer, Agilent Technologies, Santa Clara, CA). Probes for the genes encoding CD44 (NM_001001392.1); NANOG (NM_024865.2); OCT4 (NM_002701.4); STAT3 (NM_139276.2); and the housekeeping genes glucuronidase beta (NM_000181.1), clathrin heavy chain (NM 4859.2), and hypoxanthine phosphoribosyltransferase 1 (NM_000194.1) were designed and manufactured by NanoString Technologies.
Expression data obtained with NanoString GX were analyzed by using nSolver Analysis Software 3.0 (nanostring.com/products/nSolver) with default settings, and normalized to housekeeping genes. nSolver was used to perform cluster analysis and to generate heat maps by using Java Treeview Version 1.1.6r4. Pathway analysis was performed by using the PathCards Pathway Unification Database (pathcards.genecards.org). Student's t-tests were used to determine significant differences (p<0.05).

T-lymphocytes = assay: P4A10 priming prior to antigen presentation, CD200R1 expression; assay type: cell-based; conditions: not observed in mock-treated cells, FIG. 7d
Description: The efficacy of the P4A10+autologous tumor lysate strategy in this context creates an interesting conundrum. The T-cells that respond to APC presentation following stimulation express the inhibitory CD200R129. The immune-stimulatory effects of these primed T-cells, therefore, are expected to be blunted upon entry into a glioblastoma microenvironment that is replete with soluble and tumor-expressed CD200. […] Such suppression was not observed in mock-treated cells. Similar downregulation of PD-1 was observed on APCs (p=0.005, FIG. 7c).

Splenocytes = Splenocytes pulsed with CD200 or PD-L1 +/- mCD200AR-L, flow cytometry for CTLA4 and PD-L1; assay type: cell-based; conditions: splenocytes pulsed with CD200 or PD-L1
Method: FIGS. 14A-14C. […] Splenocytes were pulsed with CD200, PD-L1+/−mCD200AR-L. Cells were analyzed by flow cytometry for the (FIG. 14A) CD4^+CTLA4^+, (FIG. 14B) CD8^+CTLA4^+or (FIG. 14C) CD11b^+PD-L1^+ populations. Error bars are representative of n=2 *P<0.005, **P<0.0001.
We propose that soluble CD200 and PD-L1 inhibit T cell activation through multiple checkpoints (FIG. 10). Therefore, the effect of multiple suppressive molecules (CD200 and PD-L1) on T cell inhibition was investigated. […] In addition, following PD-L1 treatment, an upregulation of PD-L1 on CD11b and an upregulation of CTLA4 was observed on T cells. Being CTLA4 and PD-L1 propagate separate inhibitory signals, it was hypothesized that PD-L1 inhibits T cell activation through 1) direct CD200 and PD-L1 on T cells and 2) direct PD-L1 (on APCs)/PD-I (on […]) producing cytokines upregulating CTLA4, which would explain the enhanced responses seen in combination α-PD-1 and α-CTLA4 treatments. However, neither of them inhibit CD200 effect on T cells.
We next looked at the effects of CD200AR-L on T cell inhibition. […] Being CTLA4 and PD-L1 propagate separate inhibitory signals, we hypothesize that PD-L1 inhibits T cell activation through two separate mechanisms, 1) through direct PD-L1 (on APCs)/PD-I (on T cells) interactions and through cytokine production following PD-L1 binding to the PD-1 on CD11b cell, which would explain the enhanced responses seen in combination α-PD-1 and α-CTLA4 treatments.

Molecule | antigen-specific response, production of IFNγ [1] | IL-1β in supernatant (Human CD14+ cells) | TNFα in supernatant (Human CD14+ cells) | secretion of inflammatory cytokines from CD14+ cells (Human CD14+ cells) | also measured
IVTWQKKKAVSPENM (Ac-IVTWQKKKAVSPENM-NH2; listed as Homo sapiens) [P1] | significant antigen-specific response | statistically significant increases | statistically significant increases |  | 
CLFNTFGFGKISGTA (Ac-CLFNTFGFGKISGTA-NH2; listed as Homo sapiens) [P4] | significant antigen-specific response | statistically significant increases | statistically significant increases |  | 
NITLEDEGCYMCLFN (Ac-NITLEDEGCYMCLFN-NH2; cysteine pairing not given here; listed as Homo sapiens) [P2] | significant antigen-specific response | statistically significant increases | statistically significant increases |  | 
NITLADEGCYMCLFN (Ac-NITLADEGCYMCLFN-NH2; cysteine pairing not given here; listed as Homo sapiens) [P2A5] |  |  |  | maximally stimulated | 
CLFNTFGFGAISGTA (Ac-CLFNTFGFGAISGTA-NH2; listed as Homo sapiens) [P4A10] |  |  |  | maximally stimulated | levels of co-stimulatory molecules CD80, CD86, and HLA-DR (CD14+ cells [2]): higher levels; mRNA expression of TNF-regulated cytokines (CD14+ cells [3]): most potently and consistently induced; mRNA expression of cytokines released in response to TNF signaling (CD14+ cells [3]): notable increase; CD200R1 expression (T-lymphocytes): suppressed
VTFSENHGVVIAPAY (Ac-VTFSENHGVVIAPAY-NH2; listed as Homo sapiens) [P3A12] |  |  |  | maximally stimulated | 
NITLEDEGCYMCLFN (Ac-NITLEDEGCYMCLFN-NH2; cysteine pairing not given here; listed as Homo sapiens) [P2A0] |  |  |  | maximally stimulated | levels of co-stimulatory molecules CD80, CD86, and HLA-DR (CD14+ cells [2]): higher levels; mRNA expression of TNF-regulated cytokines (CD14+ cells [3]): most potently and consistently induced; mRNA expression of cytokines released in response to TNF signaling (CD14+ cells [3]): notable increase
NLVPMVATV [pp65, CMV antigen peptide pp65495-503, reference compound] |  |  |  |  | increase of T-cell IFNγ production ([1]; exposure to pp65 alone, FIG. 4c): approximately 4 fold
VTFSENHGVVIQPAY (Ac-VTFSENHGVVIQPAY-NH2; listed as Homo sapiens) [P3] | significant antigen-specific response | statistically significant increases | statistically significant increases |  | 
CD200: CD200 immune checkpoint protein used to pulse splenocytes (protein, UniProt O54901 31-278, looked up) OX-2 membrane glycoprotein: QVEVVTQDERKALHTTASLRCSLKTSQEPLIVTWQKKKAVSPENMVTYSKTHGVVIQPAYKDRINVTELGLWNSSITFWNTTLEDEGCYMCLFNTFGSQKVSGTACLTLYVQPIVHLHYNYFEDHLNITCSATARPAPAISWKGTGTGIENSTESHFHSNGTTSVTSILRVKDPKTQVGKEVICQVLYLGNVIDYKQSLDKGFWFSVPLLLSIVSLVILLVLISILLYWKRHRNQERGESSQGMQRMK |  |  |  |  | CTLA4 on CD4 cells (Splenocytes): upregulation; CTLA4 on CD8 cells (Splenocytes): not on CD8 cells
